Tests used:
[1] = tested on: thrombus formation in mesenteric venules; test: Fluorescein sodium-mediated thrombus formation in mesenteric microvessels of mice; assay type: in vivo; conditions: n = 6, mean ± SEM (DMSO 117.7 ± 12.4 s)
Procedure: Male ICR mice (weighing 20–25 g and aged 5–6 weeks) were purchased from BioLasco (Taipei, Taiwan). The animal use protocol for this project was approved by the Affidavit of Approval of Animal Use Protocol–Taipei Medical University (LAC-2020–0074). All animal experiments were conducted in accordance with the Guide for the Care and Use of Laboratory Animals, Eighth Edition (2011).
The mice were anesthetized with an oxygen–air mixture containing 3% isoflurane at a gas flow rate of 1.5–2 L/min. A bolus dose (bolus volume: 20 μL) of compound 6 (0.3 mg/kg, 0.6 mg/kg, or 1.2 mg/kg), DMSO (solvent control; 1.1 g/kg), or aspirin (20 mg/kg; positive control) was intravenously administered through the tail vein before the administering sodium fluorescein (15 mg/kg). The small intestinal segments were placed on a transparent culture dish, and the mesenteric vessels were observed under a microscope. Venules (20–30 μm) were selected and irradiated with light (wavelength <520 nm) to induce endothelial damage, causing thrombus formation and subsequent vessel occlusion. The time required to occlude a microvessel was recorded ([Lin et al., 2013]). A formula for dose translation based on the […] was used to calculate the appropriate dose for use in the mice ([Reagan-Shaw et al., 2008]). [Reagan-Shaw et al. (2008)] reported that the animal dose should not be extrapolated to a human equivalent dose (HED) by a simple conversion based on body weight. […] The formula for dose translation based on BSA is as follows: HED (mg/kg) = Animal dose (mg/kg) multiply by Animal Km/Human Km. Mouse Km is 3 and Human Km is 37.
(§1) FIGURE 3 Effects of compound 6 on thrombosis and hemostasis in mice. Mice were treated with compound 6 (0.3, 0.6, or 1.2 mg/kg), DMSO (solvent control), or aspirin (20 mg/kg; positive control) via intravenous route for 10 min. (A) The microthrombus formation (arrows) in mesenteric venules. Scale bar = 30 μm. […] Each point on the plot indicates a mouse (n = 6). Data (A,B) are presented as means ± SEM (n = 6). *p < 0.05 and ***p < 0.001 compared with the DMSO group.

[2] = tested on: tail bleeding (hemostasis); test: Tail-bleeding assay; assay type: in vivo; conditions: 0.3, 0.6 or 1.2 mg/kg, mice, n = 6
Procedure: For the tail-bleeding assay, the mice were anesthetized with an oxygen–air mixture containing 3% isoflurane at a gas flow rate of 1.5–2 L/min. A bolus dose of compound 6 (0.3 mg/kg, 0.6 mg/kg, or 1.2 mg/kg), DMSO (solvent control; 1.1 g/kg), or aspirin (20 mg/kg; positive control) was intraperitoneally administered for 30 min. A 3-mm incision was then made at the tail tip to induce bleeding. The bleeding tail stump was immediately immersed in saline, and the bleeding time was recorded. […] A formula for dose translation based on the […] was used to calculate the dose for use in the mice ([Reagan-Shaw et al., 2008]).
as §1

recombinant human GPVI = target: T1, recombinant human GPVI (Homo sapiens, UniProt Q9HCN6); test: Surface plasmon resonance binding assay (OpenSPR); conditions: his-tagged recombinant GPVI on NTA chip, compound at 0.1 and 1 μM; read-out: KD (equilibrium dissociation constant)
T1 sequence (Q9HCN6 21-267 limits assumed): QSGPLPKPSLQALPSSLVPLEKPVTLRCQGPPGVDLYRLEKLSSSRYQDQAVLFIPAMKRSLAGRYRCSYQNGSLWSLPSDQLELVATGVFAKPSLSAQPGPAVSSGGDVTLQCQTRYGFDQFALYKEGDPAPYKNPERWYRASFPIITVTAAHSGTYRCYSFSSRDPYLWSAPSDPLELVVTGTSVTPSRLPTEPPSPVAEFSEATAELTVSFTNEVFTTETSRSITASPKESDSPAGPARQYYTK
Procedure: Surface plasmon resonance (SPR) analysis was performed using an OpenSPR instrument (Nicoya, Kitchener, Canada). A nitrilotriacetic acid (NTA) sensor chip was installed in the OpenSPR instrument. Running buffer (phosphate-buffered saline) was pumped at the maximum flow rate, and 80% isopropanol was injected to remove any bubbles. Subsequently, 200 μL of a 200 mM imidazole solution was injected to prime the sensor surface. After rinsing the chip with running buffer, 200 μL of a 40 mM NiCl2 solution was used to activate the NTA chip. After 5 min of interaction time, his-tagged recombinant GPVI proteins were bound to the NTA chip by perfusing the GPVI protein solution at a flow rate of 20 μL/min. Solutions of compound 5 or compound 6 (0.1 and 1 μM) were then injected. The equilibrium dissociation constant (KD) was determined using the OpenSPR system (Nicoya).
An SPR binding assay was performed. First, recombinant human GPVI was coated on the NTA sensor chip. Solutions of compound 5 and compound 6 (0.1 and 1 μM) were then perfused on the chip, and the KD was determined using the OpenSPR system (Nicoya Lifesciences).
FIGURE 7 Direct binding of compound 6 on GPVI. […] Equilibrium dissociation constant (KD) were determined using the OpenSPR system. […]

CCCCN1C(=O)c2cccc3c(NCCNC(=O)C45CC6CC(CC(C6)C4)C5)ccc(c23)C1=O [compound 6]
Occlusion time ([1]; 0.3 mg/kg i.v.): 211.5 ± 15.8 s | Occlusion time ([1]; 0.6 mg/kg i.v.): 333.5 ± 45.6 s | Occlusion time ([1]; 1.2 mg/kg i.v.): 451.5 ± 27.4 s | Duration of tail-bleeding [2]: did not significantly affect | Kd (recombinant human GPVI): 160 nM

Source: article PMC12234328, “A naphthalimide derivative exerts potent antiplatelet and antithrombotic activities without a bleeding tendency” (Frontiers in Pharmacology, 2025)
